Results on 2 substances are retold here after paper PMC6973020, “Quinoline‐Conjugated Ruthenacarboranes: Toward Hybrid Drugs with a Dual Mode of Action” (Chemmedchem, 2019).

Assay [1] relates to Human fibroblast cell line MRC‐5. As to the kind of experiment: Crystal violet (CV) cell viability assay, MRC‐5. Type of assay: cell-based. As to conditions: 72 h. An excerpt: (§1) Thus, care must be taken when comparing their biological activities with those of our previous studies, even with the same cell line, because the covalent vs. non‐covalent combination of drugs might imply different mechanisms of action in the cell.44 Here, we studied the in vitro activity of ruthenacarborane 3, i. e. free acid, and its 8‐hydroxyquinolyl (4) and 4‐{(7‐chloroquinolin‐4‐yl)oxy}butanol‐1‐yl (5) esters, against a panel of cancer cell lines (B16 mouse melanoma, A375 human skin melanoma, MCF‐7 human breast adenocarcinoma, LN229 human glioblastoma, U251 human glioma). Human fibroblast cell line MRC‐5, murine microglial cell line BV‐2 as well as peritoneal exudate cells (Mph), were chosen as models for non‐malignant cells. […] On the other side, we wanted to assess the reproducibility of the viability data, under either controlled (with BSA) or uncontrolled (without BSA) conditions, in two sets of independent assays. […] Cells were exposed to 3–5 for 72 h, after which cell viability was determined via 3‐(4,5‐dimethylthiazol‐2‐yl)‐2,5‐diphenyltetrazolium bromide (MTT) and crystal violet (CV) assays, in parallel (Table 2). Cisplatin was also tested as reference.
(§2) Preparation of drug solutions. […] Stock solution of cisplatin was prepared in DMF (10 mM) immediately before use. A stock solution of BSA in PBS was prepared at 1.28 mM concentration, and stored at 4 °C in the dark. […] Alternatively, 3 or 4 (DMSO stock solution) were added to the BSA solution in PBS, always with a 10 : 1 molar ratio of BSA to ruthenacarborane. […]
(§3) Colorimetric assays for cellular viability. […] The absorbance was measured with an automated microplate reader at λmax 540 nm, with the reference λmax 670 nm. Untreated cells or cells treated only with BSA (control) were also measured, as reference for BSA‐free and BSA‐containing drug formulations, respectively. […] Cell viability is expressed as percentage (%) relative to control (untreated cultures).58 Experiments were run in three independent replicates. […]

Assay [2] shares this test system. As to the kind of experiment: MTT cell viability assay, MRC‐5. As to conditions: 72 h. It counts as cell-based.
Excerpt: as §1, §2, §3
Background: Formazan colour is commonly taken as a measure of viable cells.

Assay [3] deals with murine microglial cell line BV‐2. As to the kind of experiment: Crystal violet (CV) cell viability assay, BV‐2. Particulars: 72 h. Type of assay: cell-based, mouse.
Excerpt: as §1, §2, §3

The subject of the next assay is U251 human glioma. The assay can be described thus: Crystal violet (CV) cell viability assay, U251. Type of assay: cell-based. Particulars: CV assay, 72 h; read-out: IC50 U251.
Excerpt: as §1
Preparation of drug solutions. […] Stock solution of cisplatin was prepared in DMF (10 mM) immediately before use. A stock solution of BSA in PBS was prepared at 1.28 mM concentration, and stored at 4 °C in the dark. […] Alternatively, 3 or 4 (DMSO stock solution) were added to the BSA solution in PBS, always with a 10 : 1 molar ratio of BSA to ruthenacarborane. The BSA−ruthenacarborane solutions were incubated 0.5–1 h at room temperature, then diluted with cell culture medium to the desired final concentrations. Final concentrations of 3 and 4 were the same as for the BSA‐free formulation. Final DMSO was 0.02–0.5 vol %.
Colorimetric assays for cellular viability. […] For counting the number of attached (viable) cells, cells were fixed with 4 % (w/v) paraformaldehyde for 10 min at room temperature, and subsequently stained for 15 min with […] crystal violet (CV) solution. Cells were then washed with tap water, dried in air, and the CV dye was dissolved in 33 % (w/v) acetic acid solution. For the detection of mitochondrial respiration, cells were cultivated in MTT staining solution (0.5 mg mL^−1) for approximately 1 h. The dye was then discarded, and the formed formazan (purple) was dissolved in DMSO. The absorbance was measured with an automated microplate reader at λmax 540 nm, with the reference λmax 670 nm. Untreated cells or cells treated only with BSA (control) were also measured, as reference for BSA‐free and BSA‐containing drug formulations, respectively. For determination of the role of autophagy specific inhibitors, CQ or 3‐MA, were applied at a concentration of 20 μM and 0.5 mM, respectively, and the cells were stained with CV dye. Cell viability is expressed as percentage (%) relative to control (untreated cultures).58 Experiments were run in three independent replicates. […] Non‐linear regression analyses of the obtained results was done using GraphPad Prism software to calculate IC50 values.
mouse microglial cell line BV‐2 was a kind gift from Dr. Irena Lavrnja, Institute for Biological Research
“Siniša Stanković” (University of Belgrade).

As to “closo ‐[3‐(η^6‐p‐Cymene)‐1‐(quinolin‐8‐yl‐acetate)‐3,1,2‐RuC2B9H10] [Compound 4]”, the IC50 – broadly, the point on the concentration scale where inhibition reaches its midpoint – amounted to 4.9 ± 0.1 µM in assay [1], 3.9 ± 0.1 µM in assay [2], 9.2 ± 0.1 µM in assay [3] and 45.1 ± 0.8 µM in the assay with U251 human glioma.
Consider “closo‐ [Compound 3, closo‐ [3‐(η^6‐p‐Cymene)‐1‐(CH2COOH)‐3,1,2‐RuC2B9H10]]”, for which the IC50 was 58.5 ± 0.3 µM in assay [1], 44.2 ± 1.6 µM in assay [2], 68.2 ± 1.3 µM in assay [3] and greater than 100 µM in the assay on U251 human glioma.
